According to patent US20110195153A1, “Nutritional Formulation Comprising A Cows Milk Peptide Containing Hydrolysate And Or Peptides Derived Thereof For Tolerance Induction” (MEAD JOHNSON NUTRITION COMPANY, priority 2009, published 2011):
“And” between values parts separate entries of the source, which are not always exact repeats. Equal entries are not always repeated.

Tested on: T-cells
Assay: Tolerance induction experiment: T-cell fraction preincubated, combined with APCs and re-stimulated
Assay type: cell-based, human
Conditions: for mean cpm / cpm / SI: individual KF1; for cpm: individual experiments; for proliferation of T-cells when re-stimulated with cow's milk protein after preincubation with the substance: re-stimulated with whey protein concentrate VTP14 or rαS1-casein, in words
Method: For the tolerance induction experiment, PBMCs from healthy donors were isolated by Ficoll-density gradient, and the cells were further separated into two fractions. T-cells were enriched with a human Pan-T-cell isolation Kit (Miltenyi, Bergisch Gladbach, Germany), whereas antigen-presenting cells were enriched with human CD3 MicroBeads (Miltenyi, Bergisch Gladbach, Germany) by magnetic cell sorting.
The cell fractions containing the T-cells were incubated overnight with different peptides or medium alone at 37° C. with 5% CO2 and 95% humidity, the antigen-presenting-cell fractions were kept overnight at the same conditions without any antigens. On the next day, the T-cell fractions were washed with DPBS (GIBCO) three times and the T-cell and antigen-presenting-cell fractions were combined. The cells (2×10^5 cells per well) were cultured in triplicates in 96-well plates as described above. […] The analysis was done as described for the lymphoproliferative assays.
T-cell fractions were preincubated over night with high amounts of Nutramigen™ base (VTP11), extensive casein hydrolysate (VTP15), whole cow's milk whey protein (VTP14), Nutramigen™ (VTP3), synthetic peptides ([…], Phl p 5-Pep 1) or buffer (UCO). On the next day the T-cells and the APCs were combined and stimulated with milk samples (VTP14, VTP1). T cell stimulation is given either in counts per minute (cpm) or as stimulation index (SI).

[1] = T-cells tolerized with the substance, stimulated with UCO
[2] = tolerized with the substance, stimulated with IL-2
[3] = tolerized with the substance, stimulated with VTP1, first line
[4] = tolerized with the substance, stimulated with VTP1, second line
[5] = tolerized with the substance, stimulated with VTP14, first line
[6] = tolerized with the substance, stimulated with VTP14, second line

Sequence | mean cpm [1] | SI [2] | mean cpm [2] | SI [3] | mean cpm [3] | SI [4] | mean cpm [4] | SI [5] | mean cpm [5] | SI [6] | mean cpm [6] | proliferation of T-cells when re-stimulated with cow's milk protein after preincubation with the substance | other results
CGAASNKAFAEGLSGEPKGAAESSSKAALTSK (Phleum pratense) [Phl P5-peptide 1, control peptide, grass pollen allergen] | 12522 cpm | 1.2 | 14724 cpm | 0.3 | 4295 cpm | 0.5 | 6355 cpm | 3.4 | 41970 cpm | 0.2 | 2336 cpm |  | cpm (T-cells tolerized with the substance, stimulated with UCO, listed as Ph1 p 5-Pep 1): 11263 cpm and 13457 cpm and 12846 cpm; cpm (tolerized with the substance, stimulated with IL-2, listed as Ph1 p 5-Pep 1): 14153 cpm and 17806 cpm and 12214 cpm; cpm (tolerized with the substance, stimulated with VTP1, first line, listed as Ph1 p 5-Pep 1): 4708 cpm and 3278 cpm and 4898 cpm; cpm (tolerized with the substance, stimulated with VTP1, second line, listed as Ph1 p 5-Pep 1): 6315 cpm and 6342 cpm and 6409 cpm; cpm (tolerized with the substance, stimulated with VTP14, first line, listed as Ph1 p 5-Pep 1): 38430 cpm and 45751 cpm and 41730 cpm; cpm (tolerized with the substance, stimulated with VTP14, second line, listed as Ph1 p 5-Pep 1): 3282 cpm and 2244 cpm and 1482 cpm
CLKKYKVPQLEIVPNSAEERLHSMKEGIHAQQKE (listed as Bos taurus) [Cas4] | 16151 cpm | 0.9 | 14533 cpm | 0.4 | 6304 cpm | 0.4 | 6621 cpm | 1.3 | 20794 cpm | 0.2 | 3747 cpm | suppress the proliferation of T-cells | cpm (T-cells tolerized with the substance, stimulated with UCO, listed as αS2-PEP 4): 17694 cpm and 14608 cpm; cpm (tolerized with the substance, stimulated with IL-2, listed as αS2-PEP 4): 12704 cpm and 19463 cpm and 11433 cpm; cpm (tolerized with the substance, stimulated with VTP1, first line, listed as αS2-PEP 4): 6381 cpm and 6304 cpm and 6226 cpm; cpm (tolerized with the substance, stimulated with VTP1, second line, listed as αS2-PEP 4): 8231 cpm and 8478 cpm and 3154 cpm; cpm (tolerized with the substance, stimulated with VTP14, first line, listed as αS2-PEP 4): 16162 cpm and 25246 cpm; cpm (tolerized with the substance, stimulated with VTP14, second line, listed as αS2-PEP 4): 2790 cpm and 4703 cpm
ISSSEEIVPNSVEQKHIQKEDVPSERYLGYEQLLRC (listed as Bos taurus) [Cas3] |  |  |  |  |  |  |  |  |  |  |  | suppress the proliferation of T-cells | proliferation of T-cells when re-stimulated with cow's milk protein after preincubation with the substance (listed as alphaS1-casein-derived peptide 3): suppressed the proliferation
